# Experimental data reported in patent US8293724B2, “Therapeutic applications of fatty acid amide hydrolase inhibitors” (The United States of America, as represented by the …, priority 2007, dated 2012).
# “Also recorded” adds a separate entry of the source.
# How the values were obtained:
# [1] = tested on: Wistar-Kyoto rats (WKY); experiment: Hemodynamic measurements in normotensive Wistar-Kyoto rats; assay type: in vivo, rat
# Procedure: (§1) Anandamide, the CB1 receptor antagonist AM251, and the anandamide transport inhibitors AM404 and OMDM-2 were obtained from Tocris; and the CB1 antagonist SR141716 and the CB2 antagonist SR144528 were from the National Institute on Drug Abuse drug supply program. Drugs were mixed in corn oil and sonicated for 5 minutes at 4° C. The mixture was added to 4 parts of Pluronic F68 (Sigma-Aldrich) solution (40 mg/mL) dissolved in water and sonicated to obtain a stable suspension for bolus intravenous injections.
# (§2) Rats were obtained from Harlan (Indianapolis, Ind.). Male, 8- to 10-month-old SHR, age-matched male Wistar-Kyoto rats (WKY), and 8- to 10-week-old male Sprague-Dawley rats were maintained on standard rat chow and water ad libitum. Dahl salt-sensitive and salt-resistant rats (male, Rapp strain, 6 weeks old) were maintained for 4 weeks on rat chow containing either 0.12% or 8% NaCl. Systolic blood pressure monitored daily by the tail-cuff technique was 120±11 mm Hg (salt-sensitive, 0.12% NaCl), 180±14 mm Hg (salt-sensitive, 8% NaCl), and 118±9 mm Hg (salt-resistant, 8% NaCl). Hypertension was induced in Sprague-Dawley rats by chronic infusion of angiotensin II (60 ng/min) via an osmotic minipump (Imig et al. Hypertension 2002; 39: 690-694. Rats were used 10 to 12 days after implantation of the minipump.
# (§3) For hemodynamic measurements, rats were anesthetized with pentobarbital sodium (60 mg/kg IP) and tracheotomized to facilitate breathing. Animals were placed on controlled heating pads, and core temperature, measured via a rectal probe, was maintained at 37° C. A microtip pressure-volume catheter (SPR-838; Millar Instruments) was inserted into the right carotid artery and advanced into the left ventricle (LV) under pressure control as described previously. Polyethylene cannulae (P50) were inserted into the right femoral artery and vein for measurement of mean arterial pressure (MAP) and administration of drugs, respectively. […] Heart rate, maximal LV systolic pressure, MAP, and maximal slope of systolic pressure increment (+dP/dt) were computed with a cardiac pressure-volume analysis program (PVAN2.9; Millar). Cardiac output calculated and corrected according to in vitro and in vivo volume calibrations with PVAN2.918 was normalized to body weight (cardiac index [CI]). Total peripheral resistance index (TPRI) was calculated by the equation TPRI=MAP/CI. In 3 experiments, drugs were microinjected into the fourth cerebral ventricle as described by Ramirez-Gonzalez et al. Circ Res. 1983; 53, 150-157.
# (§4) Time-dependent variables were analyzed by ANOVA followed by the Dunnett post hoc test. In other cases, the Student t test was used, as appropriate. Values with P<0.05 were considered statistically significant.
# [2] = tested on: spontaneously hypertensive rat (SHR); experiment: Hemodynamic measurements in anesthetized spontaneously hypertensive rats; assay type: in vivo; conditions: for change in MAP: n=4
# Procedure: as §1
# as §2, with “Systolic blood pressure monitored daily by the tail-cuff technique was 120±11 mm Hg (salt-sensitive, 0.12% NaCl), 180±14 mm Hg (salt-sensitive, 8% NaCl), and 118±9 mm Hg (salt-resistant, 8% NaCl).” left out
# as §3, §4
# [3] = tested on: normotensive controls (Sprague-Dawley rats); experiment: Blood pressure in normotensive controls of angiotensin II-treated rats; assay type: in vivo, rat; conditions: URB597, normotensive controls of angiotensin II-treated rats
# Source text: as §2
# (§5) For hemodynamic measurements, rats were anesthetized with pentobarbital sodium (60 mg/kg IP) and tracheotomized to facilitate breathing. Animals were placed on controlled heating pads, and core temperature, measured via a rectal probe, was maintained at 37° C. […] Cardiac output calculated and corrected according to in vitro and in vivo volume calibrations with PVAN2.918 was normalized to body weight (cardiac index [CI]). Total peripheral resistance index (TPRI) was calculated by the equation TPRI=MAP/CI. […]
# [4] = Non-fasting blood glucose in SHR and WKY; conditions: URB597 10 mg/kg i.p., n=4
# [5] = molecular target: T1, FAAH (Mus musculus, UniProt O08914); experiment: FAAH activity in brain and liver homogenates following in vivo administration; set-up: species or system mice; conditions: mouse
# T1 construct: the brain and liver removed, and tissue homogenates prepared as described above; from tissue; host or cells: mouse brain and liver homogenates after in vivo dosing
# T1 sequence (O08914 1-579): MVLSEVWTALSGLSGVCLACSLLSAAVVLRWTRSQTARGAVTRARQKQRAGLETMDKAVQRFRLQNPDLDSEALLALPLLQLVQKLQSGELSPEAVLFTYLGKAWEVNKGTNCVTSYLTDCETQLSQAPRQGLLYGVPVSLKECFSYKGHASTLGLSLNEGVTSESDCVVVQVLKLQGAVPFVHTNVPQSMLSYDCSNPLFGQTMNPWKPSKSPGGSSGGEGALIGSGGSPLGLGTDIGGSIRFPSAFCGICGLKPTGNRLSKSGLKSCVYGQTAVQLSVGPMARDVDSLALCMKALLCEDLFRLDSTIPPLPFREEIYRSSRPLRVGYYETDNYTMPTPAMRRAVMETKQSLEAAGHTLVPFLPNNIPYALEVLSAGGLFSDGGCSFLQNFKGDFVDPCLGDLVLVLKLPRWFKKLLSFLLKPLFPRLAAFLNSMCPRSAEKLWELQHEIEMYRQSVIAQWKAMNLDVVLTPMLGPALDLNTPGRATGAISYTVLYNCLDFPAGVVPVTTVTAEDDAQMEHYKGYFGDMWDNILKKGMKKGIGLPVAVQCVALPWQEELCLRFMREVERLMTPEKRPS
# Procedure: For the experiments illustrated in FIG. 3, FAAH activity was assessed through a different method not requiring TLC separation, as described by Jonsson et al: Br. J. Pharmacol. 133:1263-1275, 1997. […] The mice were sacrificed one hour later, the brain and liver removed, and tissue homogenates prepared as described above. [^3H]Anandamide labeled on the ethanolamide moiety was added to the homogenate and incubated at 37° C. for 10 min. The homogenate was then extracted twice with chloroform:methanol 1:1 and the radioactivity in the aqueous phase (containing the released ethanolamide) was counted.
# [6] = tested on: liver-specific CB1 receptor knockout mice; experiment: Intraperitoneal glucose tolerance test in liver-specific CB1 receptor knockout mice on high-fat diet; assay type: in vivo; conditions: URB597 10 mg/kg i.p., liver-specific CB1 knockout mice on HFD
# Procedure: (§6) Male C57Bl6/J mice, wild-type or liver-specific CB1 receptor knockout, were kept on a diet containing 60% of calories as fat (Research Diets Inc) for 14 weeks, by which time both strains have become fat due to increased adipose mass. […] Sixty minutes later the mice received 1.5 g/kg glucose i.p. and blood glucose levels were monitored for 2 hours.
# [7] = tested on: male DIO mice (wild-type C57Bl6/J on high-fat diet); experiment: Intraperitoneal glucose tolerance test in wild-type mice with diet-induced obesity; assay type: in vivo; conditions: URB597 10 mg/kg i.p., 60 min before glucose 1.5 g/kg i.p., 10 mg/kg
# Procedure: as §6
# [8] = tested on: angiotensin II-treated hypertensive rats; experiment: Blood pressure in angiotensin II-treated hypertensive rats; assay type: in vivo, rat
# Source text: as §2, §5
smiles,measurement,setting,value
CCCCC/C=C\C/C=C\C/C=C\C/C=C\CCCC(=O)Nc1ccc(O)cc1 [AM404],change in MAP,[1]; AM404 10 mg/kg,no significant change
same,change in MAP,"[2]; AM404 10 mg/kg, SHR",−63±19 mm Hg
CCCCCCC(C)(C)c1cc(O)c2c(c1)OC(C)(C)[C@@H]1CC=C(CO)C[C@@H]21 [HU210],hypotensive EC50,[1]; n=6,5.9 µg/kg
same,maximal hypotensive effect,[1]; n=6,−39±14 mm Hg
same,hypotensive EC50,"[2]; SHR, n=6",1.5 µg/kg
same,maximal hypotensive effect,"[2]; SHR, n=6",−108±11 mm Hg
CCCCCCCC/C=C\CCCCCCCC(=O)N[C@@H](CO)Cc1ccc(O)cc1 [OMDM-2],change in MAP,[1]; OMDM-2 5 mg/kg,no significant change
same,change in MAP,"[2]; OMDM-2 5 mg/kg, SHR",−39±10 mm Hg
NC(=O)c1cccc(-c2cccc(OC(=O)NC3CCCCC3)c2)c1 [URB597],blood pressure,[3],not in their normotensive controls
same,non-fasting blood glucose after treatment,"[4]; SHR, from 104.0±7.4",144.0 ± 9.6 mg/dL
same,non-fasting blood glucose after treatment,"[4]; WKY, from 90.0±7.2",135.3 ± 12.9 mg/dL
same,inhibition of FAAH activity in the liver,"[5]; in vivo, 10 mg/kg",significantly inhibits FAAH activity in the liver
same,inhibition of FAAH in brain,"[5]; in vivo, 10 mg/kg",near complete inhibition
same,inhibition at 10 mg/kg,[5]; read-out: inhibition of FAAH in liver,> 90%
same,hemodynamic effects,[1]; URB597 10 mg/kg IV,no detectable hemodynamic effects
same,glucose tolerance,[6],failed to affect glucose tolerance
same,glucose intolerance,[7],marked increase in their glucose intolerance; also recorded: increases glucose intolerance
same,blood pressure,"[8]; URB597, angiotensin II-treated hypertensive rats",lowered blood pressure
same,ED50,"[2]; Rattus norvegicus, dose-response studies, n=3, read-out: hypotensive ED50",1.7 mg/kg
same,hypotensive response after pretreatment with the VR1 antagonist capsazepine,[2]; SHR,not affected by capsazepine pretreatment
same,LV systolic pressure,"[2]; URB597 10 mg/kg IV, SHR",decreased
same,TPRI,"[2]; URB597 10 mg/kg IV, SHR",decreased
same,arterial pressure,"[2]; URB597 10 mg/kg IV, SHR",decreased arterial pressure to normotensive levels
same,dP/dt,"[2]; URB597 10 mg/kg IV, SHR",decreased
same,cardiac contractility (pressure/volume relationship),"[2]; URB597, SHR",decrease in cardiac contractility
same,effects of URB597 in the hypertensive animals in the presence of CB1 antagonists,"[2]; hypertensive animals, CB1 antagonists",could be prevented by CB1 antagonists
CCCCC/C=C\C/C=C\C/C=C\C/C=C\CCCC(=O)NCCO [anandamide],blood pressure,[1]; anandamide 10 mg/kg,modest and short-lasting
same,cardiac contractility,[1]; anandamide 10 mg/kg,modest and short-lasting
same,duration of decrease in blood pressure and cardiac contractility,[1]; anandamide 10 mg/kg,< 5 min
same,other hemodynamic changes,[1]; anandamide 10 mg/kg,without other hemodynamic changes
same,anandamide-induced hypotension,[8]; rats with angiotensin II-induced hypertension,potentiated
same,hypotensive response after pretreatment with the VR1 antagonist capsazepine,[2]; SHR,not affected by capsazepine pretreatment
same,CI,"[2]; anandamide 10 mg/kg, SHR",decreases
same,TPRI,"[2]; anandamide 10 mg/kg, SHR",decreases
same,blood pressure,"[2]; anandamide 10 mg/kg, SHR",sustained decrease in blood pressure to near normotensive levels
same,"cardiac contractility (dP/dt, LV systolic pressure)","[2]; anandamide 10 mg/kg, SHR",decreases
same,heart rate,"[2]; anandamide 10 mg/kg, SHR",decreases
